Measurements taken from patent US8735397B2, “Method for treating schizophrenia and related diseases” (Vanderbilt University, priority 2010, dated 2014).
“Also recorded” adds a separate entry of the source. Where a name gives a salt, the structure may show the parent alone.

Experiments:
[1] = tested on: PCP-induced NOR deficits in sub-chronic PCP treated rats; test: Novel object recognition (NOR) test after subchronic PCP treatment; type: in vivo, Female Long-Evans rats; details: for Acquisition (sec) Left, exploration time / Acquisition (sec) Right, exploration time / Retention (sec) Familiar, exploration time / Retention (sec) Novel, exploration time: mean±SEM; for Effective dose for reversing PCP-induced NOR deficits / Sub-effective dose in PCP-induced NOR deficit: single agent, acute administration after subchronic PCP
Protocol: Female Long-Evans rats received vehicle or PCP (2 mg/kg, i.p.) twice daily for 7 days, followed by a 7-day washout period (n=6-9/group). Phencyclidine (PCP) which is known to induce schizophrenia-like symptoms in human normal subjects and to exacerbate symptoms in patients with schizophrenia was dissolved in distilled water and administered in a volume of 1 ml/kg.
On the test day, in the first set of experiments, lurasidone HCl (0.03 and 0.1 mg/kg; produced by Dainippon Sumitomo Pharma Co., Ltd.), clozapine (0.3 mg/kg), LY379268 (1 mg/kg; Tocris Bioscience) alone, or haloperidol (0.1 mg/kg), pimavanserin (3 mg/kg), lurasidone HCl (0.03 mg/kg), clozapine (0.1 mg/kg) in combination with LY379268 (1 mg/kg) were administered intraperitoneally in a volume of 1 ml/kg, 30 min before the novel object recognition (NOR) test. In the second set of experiments, LY404039 (1 mg/kg; produced by Dainippon Sumitomo Pharma Co., Ltd.) alone was orally administered in a volume of 4 ml/kg 60 min before the novel object recognition (NOR) test. For combination with lurasidone HCl, LY404039 (1 mg/kg, p.o.) and lurasidone HCl (0.03 mg/kg, i.p.) were administered 60 min and 30 min before the novel object recognition (NOR) test, respectively. In the third set of experiments, BINA (30 mg/kg; produced by Dainippon Sumitomo Pharma Co., Ltd.) alone or BINA (30 mg/kg) in combination with lurasidone HCl (0.03 mg/kg) was administered intraperitoneally in a volume of 1 ml/kg 30 min before the novel object recognition (NOR) test.
Haloperidol, pimavanserin, and LY404039 were dissolved in distilled water. Lurasidone HCl was dissolved 0.5% methylcellulose, 0.2% Tween 80. Clozapine was dissolved in a small amount of 0.1 M phosphoric acid, and the pH was adjusted to 6 to 7 with 0.1 N NaOH. LY379268 was dissolved in saline. BINA was dissolved in 10% Tween 80, 10% 1N NaOH, and the pH was adjusted to 7 with 1N HCl.
The object recognition test was performed in an open field comprising a square box made of Plexiglas (52/52/31 cm) placed 37 cm above the floor on an immoveable stand. The floor of the box was white with black gridlines forming nine identical squares on it. All other walls were black. A video camera connected to a video recorder and monitor was positioned above the box. The objects used for the test consisting of four heavy pyramidal structures made of metal or Perspex that could not be displaced by the animals. Care was taken to ensure that these objects were not of any natural significance to the rats.
Testing was carried out according to a previously validated method (Grayson et al., Behay. Brain Res. 2007 184, 31-38; Snigdha et al., J. Pharmacol. Exp. Ther., 2010 332 (2), 622-31). The rats were familiarized to the test environment and NOR arena before the test day. Habituation consisting of placing the subjects in the empty NOR arena for 1 h, on the day before the test day (day 1). Before behavioral testing on day 2, rats were given a further 3-min habituation. For each experimental trial after the 3-min habituation period, the rats were given two 3-min trials (T1 and T2), separated by a 1-min intertrial interval in the home cage during which the objects were changed and the arena was cleaned. In Trial 1 (T1) or the acquisition trial, the animals were allowed to explore two identical objects (A1 and A2) for 3 min. In the second trial (T2) or the retention trial, the animals explored a familiar object (A) from T1 and a novel object (B) for 3 min. The familiar object presented during T2 was a duplicate of the object presented in T1 to avoid any olfactory trails. Each rat was tested three or four times in the NOR paradigm. To reduce carryover effects, a 7-day washout period was given between each of the test sessions. The criterion for continuing to test the rats was based on mean total exploration time in the acquisition or retention phase 5 seconds. […] This happened rarely and not enough to affect the ability to use the remaining animals for analysis. […]

[2] = target: serotonin 5-HT2A receptor (Homo sapiens, UniProt P28223); details: cited from earlier work
Chain of serotonin 5-HT2A receptor (P28223 whole entry): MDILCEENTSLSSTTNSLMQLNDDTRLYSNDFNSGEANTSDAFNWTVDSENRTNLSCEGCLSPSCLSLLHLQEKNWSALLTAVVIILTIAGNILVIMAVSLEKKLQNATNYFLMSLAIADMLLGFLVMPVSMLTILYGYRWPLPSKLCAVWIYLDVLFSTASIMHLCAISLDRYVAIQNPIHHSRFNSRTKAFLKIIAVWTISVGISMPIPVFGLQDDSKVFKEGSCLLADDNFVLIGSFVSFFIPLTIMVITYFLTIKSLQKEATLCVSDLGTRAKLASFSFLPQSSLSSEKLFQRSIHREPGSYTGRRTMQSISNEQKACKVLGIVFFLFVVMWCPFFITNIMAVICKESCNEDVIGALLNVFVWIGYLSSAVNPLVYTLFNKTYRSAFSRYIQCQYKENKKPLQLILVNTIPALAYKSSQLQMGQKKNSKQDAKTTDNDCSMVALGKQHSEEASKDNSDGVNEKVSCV

muscarinic M1 receptor = target: T1, muscarinic M1 receptor (Homo sapiens, UniProt P11229); details: cited from earlier work
T1 sequence (P11229 1-460): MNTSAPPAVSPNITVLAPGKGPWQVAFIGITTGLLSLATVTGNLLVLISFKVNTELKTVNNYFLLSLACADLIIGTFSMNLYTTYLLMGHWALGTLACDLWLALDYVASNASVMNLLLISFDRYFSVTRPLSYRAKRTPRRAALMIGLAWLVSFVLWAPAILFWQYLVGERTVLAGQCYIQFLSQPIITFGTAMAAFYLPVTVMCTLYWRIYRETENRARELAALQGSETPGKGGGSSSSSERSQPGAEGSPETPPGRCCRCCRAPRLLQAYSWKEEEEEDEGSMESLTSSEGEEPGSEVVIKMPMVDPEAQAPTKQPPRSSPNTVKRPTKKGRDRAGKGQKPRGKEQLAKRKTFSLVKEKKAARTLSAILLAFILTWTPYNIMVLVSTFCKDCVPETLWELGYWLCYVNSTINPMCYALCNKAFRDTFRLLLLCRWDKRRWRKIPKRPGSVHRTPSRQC

serotonin 5-HT7 receptor = serotonin 5-HT7 receptor (Homo sapiens, UniProt P34969); details: cited from earlier work
Chain of serotonin 5-HT7 receptor (P34969 whole entry): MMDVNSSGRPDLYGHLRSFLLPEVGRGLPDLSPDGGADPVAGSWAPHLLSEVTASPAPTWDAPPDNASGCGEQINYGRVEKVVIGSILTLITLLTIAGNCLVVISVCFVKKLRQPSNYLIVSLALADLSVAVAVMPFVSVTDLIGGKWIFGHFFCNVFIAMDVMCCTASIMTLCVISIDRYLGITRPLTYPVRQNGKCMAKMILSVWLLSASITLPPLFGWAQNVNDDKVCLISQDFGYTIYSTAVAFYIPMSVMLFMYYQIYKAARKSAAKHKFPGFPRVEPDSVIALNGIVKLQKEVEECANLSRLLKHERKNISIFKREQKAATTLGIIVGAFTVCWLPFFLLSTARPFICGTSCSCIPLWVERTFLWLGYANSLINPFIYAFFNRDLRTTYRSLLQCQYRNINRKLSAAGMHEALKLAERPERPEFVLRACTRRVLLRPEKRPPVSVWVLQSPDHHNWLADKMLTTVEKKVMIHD

dopamine D2 receptor = dopamine D2 receptor (Homo sapiens, UniProt P14416); details: cited from earlier work
Chain of dopamine D2 receptor (P14416 whole entry): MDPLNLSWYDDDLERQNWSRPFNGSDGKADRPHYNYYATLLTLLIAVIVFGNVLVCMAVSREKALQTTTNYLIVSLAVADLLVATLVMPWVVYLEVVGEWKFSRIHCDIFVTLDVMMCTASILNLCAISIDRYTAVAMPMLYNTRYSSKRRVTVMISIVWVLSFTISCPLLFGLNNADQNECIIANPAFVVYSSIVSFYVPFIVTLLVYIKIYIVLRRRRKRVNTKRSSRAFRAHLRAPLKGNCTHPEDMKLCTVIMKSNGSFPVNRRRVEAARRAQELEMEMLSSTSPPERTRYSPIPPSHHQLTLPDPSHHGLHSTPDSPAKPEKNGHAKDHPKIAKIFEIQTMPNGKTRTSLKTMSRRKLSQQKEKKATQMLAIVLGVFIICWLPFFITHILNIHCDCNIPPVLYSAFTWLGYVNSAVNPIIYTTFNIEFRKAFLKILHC

[3] = target: T2, noradrenaline α2C receptor (Homo sapiens, UniProt P18825); details: cited from earlier work
T2 sequence (P18825 1-462): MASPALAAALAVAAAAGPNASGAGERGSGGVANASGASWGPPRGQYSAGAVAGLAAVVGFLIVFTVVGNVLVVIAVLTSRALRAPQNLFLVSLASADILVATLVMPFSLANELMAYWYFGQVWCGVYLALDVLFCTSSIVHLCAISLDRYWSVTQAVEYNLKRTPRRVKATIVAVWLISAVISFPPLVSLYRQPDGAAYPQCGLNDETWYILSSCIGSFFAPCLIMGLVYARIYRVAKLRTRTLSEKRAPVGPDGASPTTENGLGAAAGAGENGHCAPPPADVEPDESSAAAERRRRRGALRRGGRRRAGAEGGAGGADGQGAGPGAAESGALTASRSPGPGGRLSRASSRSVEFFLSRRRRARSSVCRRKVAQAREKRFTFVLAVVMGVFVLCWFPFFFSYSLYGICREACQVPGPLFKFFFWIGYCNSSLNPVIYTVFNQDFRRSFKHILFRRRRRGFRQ

histamine H1 receptor = histamine H1 receptor (Homo sapiens, UniProt P35367); details: cited from earlier work
Chain of histamine H1 receptor (P35367 whole entry): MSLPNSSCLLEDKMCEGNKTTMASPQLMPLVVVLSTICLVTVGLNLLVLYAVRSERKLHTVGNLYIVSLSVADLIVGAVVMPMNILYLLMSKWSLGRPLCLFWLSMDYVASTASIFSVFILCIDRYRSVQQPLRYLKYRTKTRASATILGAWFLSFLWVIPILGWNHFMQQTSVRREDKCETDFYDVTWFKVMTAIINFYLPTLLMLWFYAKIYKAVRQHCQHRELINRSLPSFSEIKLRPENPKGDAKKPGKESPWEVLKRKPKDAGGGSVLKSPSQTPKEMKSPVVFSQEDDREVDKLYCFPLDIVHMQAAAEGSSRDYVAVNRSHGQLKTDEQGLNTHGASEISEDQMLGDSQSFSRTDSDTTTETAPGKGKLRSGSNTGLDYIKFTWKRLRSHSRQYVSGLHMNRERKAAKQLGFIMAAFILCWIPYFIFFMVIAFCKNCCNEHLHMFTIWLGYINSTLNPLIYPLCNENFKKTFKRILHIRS

[4] = target: T3, serotonin 5-HT1A receptor (Homo sapiens, UniProt P08908); details: cited from earlier work
T3 sequence (P08908 1-422): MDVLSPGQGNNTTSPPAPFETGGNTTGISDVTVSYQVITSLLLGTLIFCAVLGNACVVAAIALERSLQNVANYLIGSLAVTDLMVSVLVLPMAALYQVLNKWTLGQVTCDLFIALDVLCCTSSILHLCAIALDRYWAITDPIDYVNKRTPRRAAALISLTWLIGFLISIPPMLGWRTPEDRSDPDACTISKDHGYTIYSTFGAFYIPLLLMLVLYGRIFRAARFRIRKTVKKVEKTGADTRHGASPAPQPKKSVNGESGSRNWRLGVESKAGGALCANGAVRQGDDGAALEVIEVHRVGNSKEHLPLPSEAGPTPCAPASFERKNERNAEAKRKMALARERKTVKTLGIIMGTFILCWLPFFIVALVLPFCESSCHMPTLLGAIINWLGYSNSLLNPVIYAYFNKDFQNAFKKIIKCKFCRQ

[5] = PCP + BINA 30 mg/kg i.p. 30 min before NOR, n=7 to 9
[6] = PCP + clozapine 0.1 mg/kg, n=6 to 8
[7] = PCP + clozapine 0.3 mg/kg i.p. 30 min before NOR, n=6 to 8
[8] = PCP + LY379268 1 mg/kg i.p. 30 min before NOR, n=6 to 8
[9] = PCP + LY404039 1 mg/kg p.o. 60 min before NOR, n=7 to 8
[10] = PCP + lurasidone HCl 0.03 mg/kg i.p. 30 min before NOR, n=7 to 8
[11] = PCP + lurasidone HCl 0.1 mg/kg i.p. 30 min before NOR, n=7 to 8

Cc1c(OCc2cccc(-c3ccc(C(=O)O)cc3)c2)cc2c(c1C)C(=O)C(C1CCCC1)C2 (stereo not shown) [BINA, 3′-(2-Cyclopentyl-6,7-dimethyl-1-oxoindan-5-yloxy-methyl)biphenyl-4-carboxylic acid]
Effect on PCP-induced NOR deficits ([1]; BINA alone 30 mg/kg i.p.): did not attenuate the PCP-induced NOR deficits; also recorded: did not improve the PCP-induced deficit in NOR | Acquisition (sec) Left, exploration time [1, 5]: 9.8 ± 1.5 s | Acquisition (sec) Right, exploration time [1, 5]: 10.7 ± 2.0 s | Retention (sec) Familiar, exploration time [1, 5]: 6.0 ± 1.1 s | Retention (sec) Novel, exploration time [1, 5]: 7.9 ± 1.0 s

CN1CCN(C2=Nc3cc(Cl)ccc3Nc3ccccc32)CC1 [Clozapine]
Acquisition (sec) Left, exploration time [1, 6]: 12.7 ± 3.5 s | Acquisition (sec) Right, exploration time [1, 6]: 10.6 ± 2.1 s | Retention (sec) Familiar, exploration time [1, 6]: 9.1 ± 1.9 s | Retention (sec) Novel, exploration time [1, 6]: 11.0 ± 2.8 s | Acquisition (sec) Left, exploration time [1, 7]: 13.1 ± 2.9 s | Acquisition (sec) Right, exploration time [1, 7]: 11.4 ± 2.5 s | Retention (sec) Familiar, exploration time [1, 7]: 7.3 ± 1.7 s | Retention (sec) Novel, exploration time [1, 7]: 16.3 ± 2.8 s | Effective dose for reversing PCP-induced NOR deficits [1]: 0.3 mg/kg | Sub-effective dose in PCP-induced NOR deficit [1]: 0.1 mg/kg

N[C@@]1(C(=O)O)CO[C@H]2[C@H](C(=O)O)[C@H]21 [LY379268, (1R,4R,5S,6R)-4-Amino-2-oxabicyclo[3.1.0]hexane-4,6-dicarboxylic acid]
Effect on PCP-induced NOR deficits ([1]; LY379268 alone 1 mg/kg i.p.): did not attenuate the PCP-induced NOR deficits; also recorded: did not attenuate the PCP-induced deficit in NOR | Acquisition (sec) Left, exploration time [1, 8]: 12.4 ± 2.6 s | Acquisition (sec) Right, exploration time [1, 8]: 11.0 ± 4.2 s | Retention (sec) Familiar, exploration time [1, 8]: 8.3 ± 1.5 s | Retention (sec) Novel, exploration time [1, 8]: 9.7 ± 2.2 s

N[C@@]1(C(=O)O)CS(=O)(=O)[C@H]2[C@H](C(=O)O)[C@H]21 [LY404039, (−)-(1R,4S,5S,6S)-4-Amino-2-thiabicyclo[3.1.0]hexane-4,6-dicarboxylic acid S,S-dioxide]
Effect on PCP-induced NOR deficits ([1]; LY404039 alone 1 mg/kg p.o.): did not attenuate the PCP-induced NOR deficits; also recorded: did not improve the PCP-induced deficit in NOR | Acquisition (sec) Left, exploration time [1, 9]: 9.3 ± 0.8 s | Acquisition (sec) Right, exploration time [1, 9]: 8.4 ± 0.9 s | Retention (sec) Familiar, exploration time [1, 9]: 5.5 ± 1.1 s | Retention (sec) Novel, exploration time [1, 9]: 7.3 ± 0.8 s

O=C1[C@@H]2[C@H]3CC[C@H](C3)[C@@H]2C(=O)N1C[C@@H]1CCCC[C@H]1CN1CCN(c2nsc3ccccc23)CC1 [Lurasidone HCl]
Acquisition (sec) Left, exploration time [1, 10]: 11.4 ± 3.1 s | Acquisition (sec) Right, exploration time [1, 10]: 8.3 ± 1.8 s | Retention (sec) Familiar, exploration time [1, 10]: 7.6 ± 2.3 s | Retention (sec) Novel, exploration time [1, 10]: 8.9 ± 1.7 s | Acquisition (sec) Left, exploration time [1, 11]: 10.9 ± 1.3 s | Acquisition (sec) Right, exploration time [1, 11]: 10.9 ± 0.8 s | Retention (sec) Familiar, exploration time [1, 11]: 4.6 ± 1.0 s | Retention (sec) Novel, exploration time [1, 11]: 11.4 ± 2.2 s | Effective dose for reversing PCP-induced NOR deficits [1]: 0.1 mg/kg

O=C1[C@@H]2[C@H]3CC[C@H](C3)[C@@H]2C(=O)N1C[C@@H]1CCCC[C@H]1CN1CCN(c2nsc3ccccc23)CC1 [Lurasidone, (3aR,4S,7R,7aS)-2-{(1R,2R)-2-[4-(1,2-benzisothiazol-3-yl)piperazin-1-ylmethyl]cyclo-hexylmethyl}hexahydro-4,7-methano-2H-isoindole-1,3-dione]
Affinity for serotonin 5-HT2A receptors [2]: high affinity | Affinity for muscarinic M1 receptors (muscarinic M1 receptor): minimal to no affinity | Effective dose for reversing PCP-induced NOR deficits [1]: 0.1 mg/kg | Sub-effective dose in PCP-induced NOR deficit [1]: 0.03 mg/kg | Affinity for serotonin 5-HT7 receptors (serotonin 5-HT7 receptor): high affinity | Affinity for dopamine D2 receptors (dopamine D2 receptor): high affinity | Affinity for noradrenaline α2C receptors [3]: high affinity | Affinity for histamine H1 receptors (histamine H1 receptor): minimal to no affinity | Affinity for serotonin 5-HT1A receptors [4]: high affinity
